Assay results published in US20150150990A1, “ORAL PHARMACEUTICAL COMPOSITIONS IN A SOLID DISPERSION COMPRISING PREFERABLY POSACONAZOLE AND HPMCAs” (Merck Sharp & Dohme Corp., priority 2008, published 2015).
Values after ≈ are worked out from the molar mass of the structure shown.

Assay: Solubility of posaconazole free base
Format: physicochemical
Protocol: The provision of a solid composition comprising posaconazole suitable for preparing a solid dosage form for oral administration has heretofore been hampered by the poor solubility and weak basicity of the posaconazole free-base compound. Posaconazole is soluble at low pH. For example, in the environment of the stomach (approximately pH 1) posaconazole free base has a solubility of approximately 0.8 mg/mL. However, when posaconazole dissolved in the stomach fluids reaches the environment of the intestines (typically less acidic than about pH 6.4) a substantial amount of the dissolved posaconazole precipitates, hindering absorption in the intestines. It has been determined that in environments where the pH is about pH 6.4 or more basic the solubility of posaconazole free base is less than about 1 microgram/mL.

SMILES: CC[C@@H]([C@H](C)O)n1ncn(-c2ccc(N3CCN(c4ccc(OC[C@@H]5CO[C@@](Cn6cncn6)(c6ccc(F)cc6F)C5)cc4)CC3)cc2)c1=O [posaconazole free base, posaconazole]
- solubility (pH 6.4, pH about 6.4 or more basic): < 1 µg/mL
- solubility (simulated gastric fluid, environment of the stomach, approximately pH 1): ~800 µg/mL (≈ 1140 µM)
